These are literature values, as cited in patent US20040067267A1, “Process for preparation of cholesterol lowering compositions from garlic” (priority 2002, published 2004).

For one series, the target named is T1, HMG CoA reductase (Homo sapiens, UniProt P04035).
T1 sequence (P04035 1-888): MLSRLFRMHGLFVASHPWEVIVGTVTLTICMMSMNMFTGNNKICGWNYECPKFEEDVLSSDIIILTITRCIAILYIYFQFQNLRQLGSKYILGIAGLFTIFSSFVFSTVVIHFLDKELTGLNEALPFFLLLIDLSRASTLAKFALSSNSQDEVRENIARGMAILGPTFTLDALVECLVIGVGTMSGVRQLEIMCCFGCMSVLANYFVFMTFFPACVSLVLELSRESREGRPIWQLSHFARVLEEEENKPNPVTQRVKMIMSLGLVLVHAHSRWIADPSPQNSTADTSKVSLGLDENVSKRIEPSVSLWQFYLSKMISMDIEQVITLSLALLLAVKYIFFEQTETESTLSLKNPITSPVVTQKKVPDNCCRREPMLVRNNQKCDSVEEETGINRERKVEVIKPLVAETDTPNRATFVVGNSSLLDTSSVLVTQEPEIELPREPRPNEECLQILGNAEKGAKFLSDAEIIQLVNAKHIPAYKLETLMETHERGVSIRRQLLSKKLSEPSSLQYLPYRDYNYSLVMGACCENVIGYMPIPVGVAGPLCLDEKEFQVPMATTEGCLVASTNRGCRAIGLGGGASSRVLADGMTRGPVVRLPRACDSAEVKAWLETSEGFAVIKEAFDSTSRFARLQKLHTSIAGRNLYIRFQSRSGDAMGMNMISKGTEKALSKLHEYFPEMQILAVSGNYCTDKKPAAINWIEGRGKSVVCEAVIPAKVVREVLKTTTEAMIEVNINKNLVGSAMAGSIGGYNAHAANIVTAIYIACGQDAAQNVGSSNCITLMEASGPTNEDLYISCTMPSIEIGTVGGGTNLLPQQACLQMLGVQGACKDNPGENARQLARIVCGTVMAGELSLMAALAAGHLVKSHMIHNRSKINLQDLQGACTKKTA
The note with it: for lowering of plasma LDL cholesterol levels: alone; for decrease of LDL levels: given along with bile acid binding resin (Bilheimer et al 1983).

For series [1] the following is noted: patients with primary hypercholesterolemia (Hoeg et al. 1984).

As to `C=CCSSCC=C` [diallyldisulfide], in the series on mice, the “oral LD 50, female” value is reported as 130 mg/kg b.wt and the “oral LD 50, male” value is recorded as 145 mg/kg b.wt.

For mevinolin, at HMG CoA reductase, the “lowering of plasma LDL cholesterol levels” value is given as 30% and the “decrease of LDL levels” value is on record as 50%.

Take `C=CCS[S+]([O-])CC=C` (stereo not shown) [allicin]: in the series on mice, the “oral LD 50, female” value was 363 mg/kg b.wt and the “oral LD 50, male” value is given as 309 mg/kg b.wt.

Turning to `C=CCSC[C@H](N)C(=O)O` [s-allyl-L-cysteine], in the series on mice, the “oral LD 50, female” value is reported as 9390 mg/kg b.wt and the “oral LD 50, male” value is 8890 mg/kg b.wt.

Consider `CC[C@H](C)C(=O)O[C@H]1CCC=C2C=C[C@H](C)[C@H](CC[C@@H]3C[C@@H](O)CC(=O)O3)[C@H]21` [Compaction], for which, at HMG CoA reductase, the “lowering of plasma LDL cholesterol levels” value is reported as 30% and the “decrease of LDL levels” value is recorded as 50%.

In the case of `C=CCSCC=C` [diallyl sulfide], in the series on mice, the “oral LD 50, female” value is 1805 mg/kg b.wt and the “oral LD 50, male” value is on record as 2029 mg/kg b.wt.

On to `NC[C@@H]1O[C@H](O[C@H]2[C@@H](O)[C@H](O[C@@H]3[C@@H](O)[C@H](N)C[C@H](N)[C@H]3O[C@H]3O[C@H](CN)[C@@H](O)[C@H](O)[C@H]3N)O[C@@H]2CO)[C@H](N)[C@@H](O)[C@@H]1O` [Neomycin], for which the “reduction of LDL cholesterol” value in series [1] is given as 15-20%.
